One experiment has as its system HCT116. As to the kind of experiment: MTT cytotoxicity assay, HCT116. It is filed as cell-based. To be noted: Homo sapiens, HCT-116, mean ± SEM of three independent experiments in triplicate, read-out: IC50 Colon Cancer HCT116. As for the experimental part:
(§1) A panel of cancer cell lines, including breast (MDA-MB-231, BT20), brain (U251), and colon (HCT116), as well as a normal cell line (human mammary epithelial cells: HMECs), were grown as adherent monolayers in flasks with Dulbecco’s Modified Eagle Medium (DMEM), supplemented with 10% fetal bovine serum (FBS) and 1% penicillin and streptomycin in a humidified incubator with 5% CO2 at 37 °C.
(§2) The (3-(4,5-dimethylthiazol-2-yl)-2,5-diphenyltetrazolium bromide) (MTT) assay was used to determine the cytotoxicity of the 15 chrysin derivatives in the above-mentioned cell lines. Briefly, cells were harvested with 0.05% trypsin, 2.21 mM ethylenediaminetetraacetic acid (EDTA), 1× from Corning (Corning, NY, USA), and suspended at a final density of 5 × 10^3 cells/well. Cells were seeded (180 μL/well) into 96-well plates. Initially, four different concentrations of each compound were added to find the compounds with the greatest antiproliferative efficacy in the MDA-MB-231 cell line (0, 1, 10, and 100 μM). Subsequently, […] different concentrations […] of each compound were added to the remaining cell lines mentioned above. After 68 h of incubation, 20 μL of the MTT solution (4 mg/mL) were added to each well, and the plates were incubated for 4 h. This allowed viable cells to biotransform the yellow-colored MTT into dark-blue formazan crystals. Subsequently, the medium was discarded, and 150 μL of DMSO were added to each well to dissolve the formazan crystals. The absorbance was determined at 590 nm using a DTX 880 multimode detector (Beckman Coulter life sciences, IN, USA). The IC50 ± SD concentrations were calculated from three experiments performed in triplicate/duplicate. The IC50 values were calculated from the cell survival percentages obtained for each compound tested at different concentrations. Similarly, the cytotoxicity of the test compounds was compared to the normal cell line (HMEC).
For orientation: Tetrazolium assays rely on reduction of a dye to a coloured formazan, in cell work by metabolically active cells.

The subject of experiment [1] is HMEC (human mammary epithelial cells). As to the kind of experiment: MTT cytotoxicity assay, normal cells HMEC. It is filed as cell-based. To be noted: mean ± SEM of three independent experiments in triplicate. The method, then:
as §1, §2

Another experiment relates to MDA-MB-231 cells. In words: Cell cycle analysis by PI flow cytometry. The experiment is classed as cell-based, human. To be noted: 24 h, vehicle 4.46%. As for the experimental part: MDA-MB-231 cells were plated into 6-well plates at 2.5 × 10^5 cells/well. […] Next, the cells were trypsinized with 0.05% trypsin, 2.21 mM EDTA, 1×, washed, counted, and resuspended in 1 mL of ice-cold PBS. The cells then were stained with propidium iodide (PI) dye and incubated for at least 15 min. The distribution of the cells in each cell cycle phase for the different concentrations was measured using a BD Accuri™ C6 flow cytometer from BD Biosciences (Becton-Dickinson, San Jose, CA, USA) and analyzed using FCS Express 5 plus De Novo software (Glendale, CA, USA).

Another experiment relates to BT-20, U-251, and HCT116. In words: MTT cytotoxicity assay, three cancer cell lines stated together. The experiment is classed as cell-based. To be noted: range across the three cancer cell lines, read-out: IC50 values, range over BT-20, U-251 and HCT116. As for the experimental part: as §1
The (3-(4,5-dimethylthiazol-2-yl)-2,5-diphenyltetrazolium bromide) (MTT) assay was used to determine the cytotoxicity of the 15 chrysin derivatives in the above-mentioned cell lines. Briefly, cells were harvested with 0.05% trypsin, 2.21 mM ethylenediaminetetraacetic acid (EDTA), 1× from Corning (Corning, NY, USA), and suspended at a final density of 5 × 10^3 cells/well. Cells were seeded (180 μL/well) into 96-well plates. Initially, four different concentrations of each compound were added to find the compounds with the greatest antiproliferative efficacy in the MDA-MB-231 cell line (0, 1, 10, and 100 μM). […] The absorbance was determined at 590 nm using a DTX 880 multimode detector (Beckman Coulter life sciences, IN, USA). The IC50 ± SD concentrations were calculated from three experiments performed in triplicate/duplicate. The IC50 values were calculated from the cell survival percentages obtained for each compound tested at different concentrations. […]

By IC50 is commonly meant the concentration that inhibits the measured activity by half. In the case of `O=C(COc1cc(O)c2c(=O)cc(-c3ccccc3)oc2c1)N/N=C/c1ccc(O)cc1O` [Compound 4g, (E,Z)-N’-(2,4-Dihydroxybenzylidene)-2-((5-hydroxy-4-oxo-2-phenyl-4H-chromen-7-yl)oxy)acetohydrazide], the IC50 was determined as 2.68 ± 0.15 µM in the experiment with HCT116 and 8 ± 1.33 µM in experiment [1]. The “% of cells in G2 phase” value was found to be 59.12% in the experiment on MDA-MB-231 cells (5 µM) and 54.13% in the experiment on MDA-MB-231 cells (10 µM).

Take `O=C(COc1cc(O)c2c(=O)cc(-c3ccccc3)oc2c1)N/N=C/c1ccc(O)c(O)c1O` [Compound 4i, (E,Z)-2-((5-Hydroxy-4-oxo-2-phenyl-4H-chromen-7-yl)oxy)-N’-(2,3,4-trihydroxybenzylidene)acetohydrazide]: the IC50 in the experiment with HCT116 is 20.09 ± 0.13 µM; in experiment [1], > 100 µM; in the experiment with BT-20, U-251, and HCT116, 10 to 25 µM.

The values above are taken from publication PMC7412250, “Novel Chrysin-De-Allyl PAC-1 Hybrid Analogues as Anticancer Compounds: Design, Synthesis, and Biological Evaluation” (Molecules, 2020).
